{
  "source": "patent US4185089A",
  "about": "“Immunological adjuvant constituted by the p-amino-phenyl derivative of N-acetyl-muramyl-L-alanyl-D-isoglutamine” (Agence Nationale de Valorisation de la Recherche (ANVAR), priority 1976, dated 1980)",
  "key": {"[1]": {"system": "female Hartley guinea pigs", "assay": "Adjuvant test in oily phase: specific serum antibody level to ovalbumin", "assay_type": "in vivo, guinea pig", "procedure": "In these tests, the growth of the specific antibody level of a given antigen when the latter is injected, with or without the adjuvant compound according to the invention, in the midst of a water and oil emulsion was followed.\n(§1) The tests were carried out on female Hartley guinea pigs of 350 g. The administration was done by intradermal injection in the plantar pad of each of the rear paws. The ovalbumin (constituting the antigen) in the dose of 0.5 mg was prepared in 0.1 ml of an emulsion of saline isotonic solution, in an oily phase constituted either by the Freund incomplete adjuvant (FIA), or by the Freund complete adjuvant (FCA) formed by the FIA to which is added 0.1 mg of whole cells of Mycobacterium smegmatis. The compound according to the invention was administered in the dose of 0.1 mg added in the emulsion containing the FIA.\nTwenty one days after the injection, the animals were bled. On the serum collected, the specific antibody content of the ovalbumin was measured by precipitation of the antibody-antigen complex in the equivalence zone. The amount of protein nitrogen contained in this precipitate was evaluated according to the Folin method. These values express the amounts, in micrograms, of nitrogen precipitable by the antigen, per ml of serum."}, "rabbits": {"system": "rabbits", "assay": "Pyrogenicity on rabbits (French Pharmacopea protocol)", "assay_type": "in vivo", "conditions": "for Rise in temperature °C.: individual animals (batch of three), listed as product according to the invention", "description": "The pyrogenic effect of the product according to the invention on rabbits was studied, following the protocol of the French Pharmacopea, 9e edition, II-235. Each test was carried out on a batch of three rabbits. The administration was first done by the subcutaneous route, then by the intravenous route. The results of these tests, that is to say the increase in temperature in the treated animals, were as follows: […]"}, "[2]": {"system": "female Hartley guinea pigs", "assay": "Adjuvant test in oily phase: delayed hypersensitivity cutaneous test to ovalbumin", "assay_type": "in vivo, guinea pig", "procedure": "as §1\nEighteen days after this immunisation, possible reactions of delayed hypersensibility to the antigen were sought by injecting by the intradermal route 0.005 mg of ovalbumin into the side of the animals, and the reaction at the point of injection was observed 48 hours later. The diameter in mm of the thus provoked reaction was measured."}, "mice": {"system": "mice", "assay": "Toxicity by intravenous injection in mice", "assay_type": "in vivo", "conditions": "mice aged two months", "text": "The toxicity of the product according to the invention was studied by intravenous injection in mice aged two months."}},
  "note": "Several values for one entry are separate records, joined by “and”; a condition that tells them apart may be missing. Identical values can stand only once.",
  "data": [
    {"compound": "CC(=O)NC1C(Oc2ccc(N)cc2)OC(CO)C(O)C1O[C@H](C)C(=O)N[C@@H](C)C(=O)N[C@H](CCC(=O)O)C(N)=O", "note": "(stereo partly drawn) [p-amino-phenyl-Mur-NAc-L-Ala-D-iso-Gln, 2-(p-amino-phenyl-2-acetamido-2-deoxy-3-O-D-glucopyranosyl)-D-propionyl-L-alanyl-D-isoglutamine]", "values": [
      {"measurement": "Effect on level of antibodies to the administered antigen (in words)", "setting": "[1]; administered in oily emulsion", "result": "distinctly facilitates the increase in the level of antibodies"},
      {"measurement": "Seric antibodies (nitrogen precipitable by the antigen per ml of serum)", "setting": "[1]; guinea pigs, ovalbumin 0.5 mg intradermal in water-in-oil emulsion, adjuvant 100 μg, serum 21 days after injection, average values", "result": 3500, "unit": "µg/mL"},
      {"measurement": "Pyrogenicity (in words)", "setting": "rabbits; doses where adjuvant properties are manifested", "result": "apyrogenic"},
      {"measurement": "Rise in temperature °C.", "setting": "rabbits; intravenous, 1.0 mg/kg", "result": "0 °C and 0.4 °C and 0.6 °C"},
      {"measurement": "Rise in temperature °C.", "setting": "rabbits; sub-cutaneous, 0.100 mg/kg, 0.1 mg/kg", "result": "0 °C (2×) and 0.1 °C"},
      {"measurement": "Rise in temperature °C.", "setting": "rabbits; sub-cutaneous, 0.500 mg/kg, 0.5 mg/kg", "result": "0 °C and 0.2 °C and 0.1 °C"},
      {"measurement": "Delayed-type hypersensitivity reaction to the antigen (in words)", "setting": "[2]; administered in oily emulsion", "result": "induces a hypersensitivity reaction of the delayed type"},
      {"measurement": "Cutaneous test diameter in mm", "setting": "[2]; guinea pigs, challenge 0.005 mg ovalbumin intradermal 18 days after immunisation, read 48 hours later, adjuvant 100 μg", "result": "19.5±4.5", "unit": "mm"},
      {"measurement": "lethal dose (LD50)", "setting": "mice", "result": "very much higher than that of the dosage at which the product manifests its adjuvant properties"}
    ]}
  ]
}
